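1) Cells in 96-well plates. 2) Compound, 48 h, 5 concentrations. 3) Linear interpolation between surrounding doses. 4) Unreached endpoint = highest concentration. TGI: total growth inhibition.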
Columns and labels:
Assay in all cases: inhibition of tumour cell growth, NCI panel, 48 h
[1] = tested on: 786-0 renal
[2] = tested on: A549 NSCLC
[3] = tested on: ACHN renal
[4] = tested on: CAKI-1 renal
[5] = tested on: CCRF-CEM leukemia
[6] = tested on: COLO 205 colon
[7] = tested on: DLD-1 colon
[8] = tested on: DMS 114 small cell lung
[9] = tested on: DMS 273 small cell lung
[10] = tested on: EKVX NSCLC
[11] = tested on: HCC-2998 colon
[12] = tested on: HCT-116 colon
[13] = tested on: HCT-15 colon
[14] = tested on: HL-60(TB) leukemia
[15] = tested on: HOP-18 NSCLC
[16] = tested on: HOP-62 NSCLC
[17] = tested on: HOP-92 NSCLC
[18] = tested on: HT29 colon
[19] = tested on: IGROV1 ovarian
[20] = tested on: KM12 colon
[21] = tested on: KM20L2 colon
[22] = tested on: LOX IMVI melanoma
[23] = tested on: LXFL 529 NSCLC
[24] = tested on: M14 melanoma
[25] = tested on: M19-MEL melanoma
[26] = tested on: MALME-3M melanoma
[27] = tested on: MOLT-4 leukemia
[28] = tested on: NCI-H226 lung
[29] = tested on: NCI-H23 lung
[30] = tested on: NCI-H460 lung
[31] = tested on: NCI-H522 lung
[32] = tested on: OVCAR-3 ovarian
[33] = tested on: OVCAR-4 ovarian
[34] = tested on: OVCAR-8 ovarian
[35] = tested on: RXF 393 renal
[36] = tested on: RXF-631 renal
[37] = tested on: SF-268 CNS
[38] = tested on: SF-295 CNS
[39] = tested on: SF-539 CNS
[40] = tested on: SK-MEL-28 melanoma
[41] = tested on: SK-MEL-5 melanoma
[42] = tested on: SK-OV-3 ovarian
[43] = tested on: SN12C renal
[44] = tested on: SNB-19 CNS
[45] = tested on: SNB-75 CNS
[46] = tested on: SR leukemia
[47] = tested on: SW-620 colon
[48] = tested on: TK-10 renal
[49] = tested on: UACC-257 melanoma
[50] = tested on: UACC-62 melanoma
[51] = tested on: UO-31 renal
[52] = tested on: XF 498 CNS
[53] = tested on: A498 renal
[54] = tested on: K-562 leukemia
[55] = tested on: OVCAR-5 ovarian
[56] = tested on: RPMI-8226 leukemia
[57] = tested on: SK-MEL-2 melanoma
[58] = tested on: U251 CNS

Measured: TGI

COC(=O)C(=O)C(C(=O)C(=O)Nc1cc([N+](=O)[O-])ccc1C#N)c1nc2ccccc2[nH]c1=O (stereo not given)
> 100 µM: [1] | [2] | [3] | [4] | [5] | [6] | [7] | [8] | [9] | [10] | [11] | [12] | [13] | [14] | [15] | [16] | [17] | [18] | [19] | [20] | [21] | [22] | [23] | [24] | [25] | [26] | [27] | [28] | [29] | [30] | [31] | [32] | [33] | [34] | [35] | [36] | [37] | [38] | [39] | [40] | [41] | [42] | [43] | [44] | [45] | [46] | [47] | [48] | [49] | [50] | [51] | [52]

CCC1(CC)C(=O)NC(=S)N=C1N
> 100 µM: [1] | [53] | [2] | [3] | [5] | [6] | [7] | [8] | [9] | [10] | [12] | [13] | [14] | [15] | [16] | [17] | [18] | [19] | [54] | [21] | [22] | [23] | [24] | [25] | [26] | [27] | [28] | [29] | [30] | [31] | [32] | [33] | [55] | [34] | [56] | [35] | [36] | [37] | [38] | [39] | [57] | [40] | [42] | [43] | [44] | [45] | [47] | [48] | [58] | [49] | [50] | [51] | [52]
